Tests used:
Test in all cases: relative viability (nuclei count vs DMSO), 5 days (fraction); higher = more cells survive
[1] = system: NCI-H2405
In short: (§1)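 Cells from lung cancer lines were seeded into 1536-well plates and, one day later, dosed by pin tool. Treatments were either a single drug or a fixed dose of an anchor drug with five library-drug doses (not always all listed) in √10 steps. After 5 days, nuclei were stained in a one-step fixation (final 0.05% Triton X-100, 1% formaldehyde, 1 ug/ml Hoechst) and counted on 4× images, and relative viability is the treated-to-vehicle nuclei ratio, as the median of duplicate plates.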

[2] = system: NCI-H1437
In short: as §1

[3] = system: ABC-1
In short: as §1

[4] = system: SK-MES-1
In short: as §1

[5] = system: PC-3 [JPC-3]
In short: as §1

[6] = system: EKVX
In short: as §1

[7] = system: COR-L23
In short: as §1

[8] = system: NCI-H520
In short: as §1

[9] = system: NCI-H1651
In short: as §1

[10] = system: CAL-12T
In short: as §1

[11] = system: SW 1573
In short: as §1

[12] = system: NCI-H2228
In short: as §1

[13] = system: NCI-H322M; conditions: first compound 0.04 µM
In short: as §1

Clc1ccc(Nc2nnc(Cc3ccncc3)c3ccccc23)cc1 [Vatalanib] + CCNC(=O)c1noc(-c2cc(C(C)C)c(O)cc2O)c1-c1ccc(CN2CCOCC2)cc1 [Luminespib] (partner 0.01 µM)
relative viability ([1]; first compound 0.04 µM): 0.753
relative viability ([1]; first compound 0.1265 µM): 0.775
relative viability ([1]; first compound 1.265 µM): 0.594
relative viability ([1]; first compound 4 µM): 0.717
relative viability ([2]; first compound 0.04 µM): 1.21
relative viability ([2]; first compound 0.1265 µM): 1.19
relative viability ([2]; first compound 0.4 µM): 1.13
relative viability ([2]; first compound 1.265 µM): 1.12
relative viability ([2]; first compound 4 µM): 1.14
relative viability ([3]; first compound 0.04 µM): 0.822
relative viability ([3]; first compound 1.265 µM): 0.63
relative viability ([3]; first compound 4 µM): 0.507
relative viability ([4]; first compound 0.04 µM): 0.745
relative viability ([4]; first compound 0.1265 µM): 0.845
relative viability ([4]; first compound 0.4 µM): 1.05
relative viability ([4]; first compound 1.265 µM): 0.679
relative viability ([4]; first compound 4 µM): 0.6
relative viability ([5]; first compound 0.04 µM): 0.697
relative viability ([5]; first compound 0.1265 µM): 0.688
relative viability ([5]; first compound 0.4 µM): 0.7
relative viability ([5]; first compound 1.265 µM): 0.706
relative viability ([5]; first compound 4 µM): 0.723
relative viability ([6]; first compound 0.04 µM): 0.904
relative viability ([6]; first compound 0.1265 µM): 0.805
relative viability ([6]; first compound 0.4 µM): 0.876
relative viability ([6]; first compound 4 µM): 0.852
relative viability ([7]; first compound 0.04 µM): 0.715
relative viability ([7]; first compound 0.1265 µM): 0.666
relative viability ([7]; first compound 0.4 µM): 0.835
relative viability ([7]; first compound 1.265 µM): 0.646
relative viability ([7]; first compound 4 µM): 0.588
relative viability ([8]; first compound 0.04 µM): 0.199
relative viability ([8]; first compound 0.1265 µM): 0.19
relative viability ([8]; first compound 0.4 µM): 0.22
relative viability ([8]; first compound 1.265 µM): 0.221
relative viability ([8]; first compound 4 µM): 0.246
relative viability ([9]; first compound 0.04 µM): 0.852
relative viability ([9]; first compound 0.1265 µM): 0.891
relative viability ([9]; first compound 0.4 µM): 0.878
relative viability ([9]; first compound 1.265 µM): 0.869
relative viability ([9]; first compound 4 µM): 0.915
relative viability ([10]; first compound 0.04 µM): 0.722
relative viability ([10]; first compound 0.1265 µM): 0.406
relative viability ([10]; first compound 0.4 µM): 0.502
relative viability ([10]; first compound 1.265 µM): 0.255
relative viability ([10]; first compound 4 µM): 0.513
relative viability ([11]; first compound 0.04 µM): 0.425
relative viability ([11]; first compound 0.1265 µM): 0.321
relative viability ([11]; first compound 0.4 µM): 0.302
relative viability ([11]; first compound 1.265 µM): 0.437
relative viability ([11]; first compound 4 µM): 0.264
relative viability ([12]; first compound 0.04 µM): 0.145
relative viability ([12]; first compound 0.1265 µM): 0.102
relative viability ([12]; first compound 0.4 µM): 0.163
relative viability ([12]; first compound 1.265 µM): 0.115
relative viability ([12]; first compound 4 µM): 0.157
relative viability [13]: 0.849

Reference: the supplement of paper PMC10307832
